Assay results reported in ChEMBL document CHEMBL5365411, “Synthesis of 1-(4-(dimethylamino)phenyl)-3,4-diphenyl-1H-pyrrole-2,5-dione analogues and their anti-inflammatory activities in lipopolysaccharide-induced BV2 cells” (Bioorg Med Chem Lett, 2023).
Active and inactive are the calls of the source. No cut-off for these calls is given here.

Assays:
BV-2 [1] = experiment: Inhibition of LPS-induced NO release in mouse BV-2 cells at 20 uM incubated for 24 hrs by Griess assay relative to control; format: functional
[2] = Cytotoxicity against LPS-induced mouse BV-2 cells assessed as cell viability at 20 uM incubated for 24 hrs by MTT assay relative to control; format: toxicity, cell-based; conditions: LPS-induced BV-2 cells, read-out: Activity
BV-2 [3] = experiment: Inhibition of LPS-induced NO release in mouse BV-2 cells incubated for 24 hrs by Griess assay; format: functional, cell-based; conditions: for IC50: BV-2, 24 h
BV-2 [4] = experiment: Anti-inflammatory activity against LPS-induced mouse BV-2 cells assessed as reduction in COX-2 mRNA expression pre-incubated for 1 hrs followed by LPS addition and measured after 6 hrs by RT-PCR method; format: functional, cell-based; conditions: dose 5-20 µM, time 7.0 hrs
BV-2 [5] = experiment: Inhibition of LPS-induced NFkappaB activation in mouse BV2 cells assessed as reduction in p65 phosphorylated protein expression level pre-incubated for 30 mins followed by LPS addition by Western blot analysis; format: cell-based; conditions: dose 5-20 µM
BV-2 [6] = experiment: Anti-inflammatory activity against LPS-induced mouse BV-2 cells assessed as reduction in TNF-alpha mRNA expression pre-incubated for 1 hrs followed by LPS addition and measured after 6 hrs by RT-PCR method; format: functional, cell-based; conditions: dose 5-20 µM, time 7.0 hrs
BV-2 [7] = experiment: Cytotoxicity against LPS-induced mouse BV-2 cells assessed as cell viability at 2.5 to 20 uM incubated for 24 hrs by MTT assay; format: toxicity, cell-based; conditions: bv-2, 24 h, dose 2.5-20 µM
[8] = Inhibition of LPS-induced ERK phosphorylation in mouse BV-2 cells pretreated for 30 mins followed by LPS stimulation by Western blot analysis; format: cell-based; conditions: dose 5-20 µM
BV-2 [9] = experiment: Anti-inflammatory activity against LPS-induced mouse BV-2 cells assessed as reduction in IL-1beta mRNA expression pre-incubated for 1 hrs followed by LPS addition and measured after 6 hrs by RT-PCR method; format: functional, cell-based; conditions: dose 5-20 µM, time 7.0 hrs
BV-2 [10] = experiment: Anti-inflammatory activity against LPS-induced mouse BV-2 cells assessed as reduction in iNOS mRNA expression pre-incubated for 1 hrs followed by LPS addition and measured after 6 hrs by RT-PCR method; format: functional, cell-based; conditions: dose 5-20 µM, time 7.0 hrs
BV-2 [11] = experiment: Anti-inflammatory activity against LPS-induced mouse BV-2 cells assessed as reduction in COX-2 protein expression pre-incubated for 1 hrs followed by LPS addition and measured after 18 hrs by Western blot analysis; format: functional, cell-based; conditions: dose 5-20 µM, time 19.0 hrs
[12] = molecular target: c-Jun N-terminal kinase (Mus musculus) (UniProt Q91Y86+Q9WTU6+Q61831); experiment: Inhibition of LPS-induced JNK phosphorylation in mouse BV-2 cells pretreated for 30 mins followed by LPS stimulation by Western blot analysis; format: cell-based; conditions: dose 5-20 µM
BV-2 [13] = experiment: Anti-inflammatory activity against LPS-induced mouse BV-2 cells assessed as reduction in iNOS protein expression pre-incubated for 1 hrs followed by LPS addition and measured after 18 hrs by Western blot analysis; format: functional, cell-based; conditions: dose 5-20 µM, time 19.0 hrs
[14] = molecular target: MAP kinase p38 (Mus musculus) (UniProt P47811+O08911+Q9WUI1+Q9Z1B7); experiment: Inhibition of LPS-induced p38 phosphorylation in mouse BV-2 cells pretreated for 30 mins followed by LPS stimulation by Western blot analysis; format: cell-based; conditions: dose 5-20 µM
BV-2 [15] = experiment: Inhibition of LPS-induced NFkappaB activation in mouse BV2 cells assessed as reduction in IkappaBalpha phosphorylated protein expression level pre-incubated for 30 mins followed by LPS addition by Western blot analysis; format: cell-based; conditions: dose 5-20 µM
BV-2 [16] = experiment: Anti-inflammatory activity against LPS-induced mouse BV-2 cells assessed as reduction in IL-6 mRNA expression pre-incubated for 1 hrs followed by LPS addition and measured after 6 hrs by RT-PCR method; format: functional, cell-based; conditions: dose 5-20 µM, time 7.0 hrs
BV-2 [17] = experiment: Inhibition of LPS-induced NO release in mouse BV-2 cells up to 100 uM incubated for 24 hrs by Griess assay; format: functional, cell-based
RAW264.7 = experiment: Inhibition of LPS-induced NO release in mouse RAW264.7 cells at 15 uM incubated for 24 hrs by Griess assay relative to control; format: functional

c-Jun N-terminal kinase (Mus musculus), sequence (Q61831 whole entry, looked up): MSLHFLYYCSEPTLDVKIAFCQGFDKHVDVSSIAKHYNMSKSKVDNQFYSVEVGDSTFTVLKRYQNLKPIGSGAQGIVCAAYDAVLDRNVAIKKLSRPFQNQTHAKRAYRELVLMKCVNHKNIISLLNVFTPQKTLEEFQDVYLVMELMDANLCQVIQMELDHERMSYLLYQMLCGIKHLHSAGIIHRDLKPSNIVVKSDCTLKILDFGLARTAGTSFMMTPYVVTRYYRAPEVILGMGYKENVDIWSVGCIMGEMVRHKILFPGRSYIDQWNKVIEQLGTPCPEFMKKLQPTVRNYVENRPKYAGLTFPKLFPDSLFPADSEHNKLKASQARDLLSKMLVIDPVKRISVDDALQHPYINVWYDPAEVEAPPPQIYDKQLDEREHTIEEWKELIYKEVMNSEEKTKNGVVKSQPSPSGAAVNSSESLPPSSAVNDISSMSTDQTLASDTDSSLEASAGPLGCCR
c-Jun N-terminal kinase (Mus musculus), sequence (Q91Y86 whole entry, looked up): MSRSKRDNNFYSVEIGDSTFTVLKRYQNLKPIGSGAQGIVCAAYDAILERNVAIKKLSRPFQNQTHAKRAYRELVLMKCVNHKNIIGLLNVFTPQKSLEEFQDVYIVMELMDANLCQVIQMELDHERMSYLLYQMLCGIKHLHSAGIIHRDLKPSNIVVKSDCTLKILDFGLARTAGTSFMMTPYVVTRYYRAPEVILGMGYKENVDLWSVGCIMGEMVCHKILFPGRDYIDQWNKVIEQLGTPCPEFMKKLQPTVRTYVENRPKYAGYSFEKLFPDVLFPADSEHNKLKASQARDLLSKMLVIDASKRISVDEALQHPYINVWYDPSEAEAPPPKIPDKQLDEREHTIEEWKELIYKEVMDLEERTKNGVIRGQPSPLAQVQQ
c-Jun N-terminal kinase (Mus musculus), sequence (Q9WTU6 whole entry, looked up): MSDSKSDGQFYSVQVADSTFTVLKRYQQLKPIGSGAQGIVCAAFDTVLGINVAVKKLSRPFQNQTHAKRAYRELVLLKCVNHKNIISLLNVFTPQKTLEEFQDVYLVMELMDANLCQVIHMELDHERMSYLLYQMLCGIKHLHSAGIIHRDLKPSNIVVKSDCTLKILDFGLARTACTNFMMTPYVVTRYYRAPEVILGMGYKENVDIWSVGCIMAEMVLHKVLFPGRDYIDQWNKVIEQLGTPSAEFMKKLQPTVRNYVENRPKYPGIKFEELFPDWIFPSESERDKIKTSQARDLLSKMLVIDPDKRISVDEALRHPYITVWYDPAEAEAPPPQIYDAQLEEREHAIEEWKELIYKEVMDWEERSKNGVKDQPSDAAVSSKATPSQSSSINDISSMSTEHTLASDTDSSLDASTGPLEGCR

Row | Compound | inhibition at 20 µM (BV-2 [1]) [%] | viability at 24 h, 20 µM [2] [%] | further results
1 | Cc1ccc(N2C(=O)C(c3ccccc3)=C(c3ccccc3)C2=O)cc1 | 25.8 | 97.8 | 
2 | CN(C)c1cccc(N2C(=O)C(c3ccccc3)=C(c3ccccc3)C2=O)c1 | 82.1 | 90.2 | IC50 (BV-2 [3]): 12.7 µM
3 | CN(C)c1ccccc1N1C(=O)C(c2ccccc2)=C(c2ccccc2)C1=O | 81.6 | 100 | IC50 (BV-2 [3]): 13.3 µM
4 | CN(C)c1ccc(N2C(=O)C(c3ccccc3)=C(c3ccccc3)C2=O)cc1 | 83.5 | 98.9 | Activity (BV-2 [4]): Dose-Dependent Effect; inhibition (BV-2 [5]): Dose-Dependent Effect; Activity (BV-2 [6]): Dose-Dependent Effect; Activity (BV-2 [7]): Non-Toxic; inhibition [8]: inactive; Activity (BV-2 [9]): Dose-Dependent Effect; Activity (BV-2 [10]): Dose-Dependent Effect; Activity (BV-2 [11]): Dose-Dependent Effect; inhibition [12]: inactive; Activity (BV-2 [13]): Dose-Dependent Effect; inhibition [14]: Dose-Dependent Effect; inhibition (BV-2 [15]): Dose-Dependent Effect; Activity (BV-2 [16]): Dose-Dependent Effect; inhibition (BV-2 [3]): Dose-Dependent Effect; IC50 (BV-2 [3]): 7.1 µM
5 | Nc1ccc(N2C(=O)C(c3ccccc3)=C(c3ccccc3)C2=O)cc1 | 27.6 | 90.2 | 
6 | O=C1C(c2ccccc2)=C(c2ccccc2)C(=O)N1c1ccccc1 | 22.5 | 93.3 | 
7 | O=C1C(c2ccccc2)=C(c2ccccc2)C(=O)N1c1ccc(OC(F)(F)F)cc1 | 12.9 | 94.5 | 
8 | O=C1C(c2ccccc2)=C(c2ccccc2)C(=O)N1c1ccc(I)cc1 | 22.5 | 100 | 
9 | COc1ccc(N2C(=O)C(c3ccccc3)=C(c3ccccc3)C2=O)cc1 | 32.3 | 97.2 | 
10 | CC(C)(C)OC(=O)Nc1ccc(N2C(=O)C(c3ccccc3)=C(c3ccccc3)C2=O)cc1 | 39.6 | 97.1 | 
11 | O=C1C(c2ccccc2)=C(c2ccccc2)C(=O)N1c1ccc(Br)cc1 | 11.5 | 95.7 | 
12 | O=C1CCC(N2C(=O)C(c3ccccc3)=C(c3ccccc3)C2=O)C(=O)N1 (centres undefined) | 10.2 | 98.5 | IC50 (BV-2 [3]): > 50 µM
13 | O=C1C(c2ccccc2)=C(c2ccccc2)C(=O)N1c1ccc(C(F)(F)F)cc1 | 12.4 | 99.4 | 
14 | CC(C)(C)c1ccc(N2C(=O)C(c3ccccc3)=C(c3ccccc3)C2=O)cc1 | 18.4 | 100 | 
15 | O=C1C(c2ccccc2)=C(c2ccccc2)C(=O)N1c1ccc([N+](=O)[O-])cc1 | 19.3 | 99.4 | 
16 | O=C1C(c2ccccc2)=C(c2ccccc2)C(=O)N1CCc1ccccc1 | 14.2 | 100 | 
17 | O=C1C(c2ccccc2)=C(c2ccccc2)C(=O)N1c1ccc(Cl)cc1 | 16 | 93.9 | 
18 | N#Cc1ccc(N2C(=O)C(c3ccccc3)=C(c3ccccc3)C2=O)cc1 | 6.9 | 80 | 
19 | O=C1CCC(N2C(=O)c3ccccc3C2=O)C(=O)N1 (centres undefined) [THALIDOMIDE] | 0 | 93.5 | inhibition (BV-2 [17]): inactive; inhibition at 15 µM (RAW264.7): 15%
20 | O=C1C(c2ccccc2)=C(c2ccccc2)C(=O)N1Cc1ccccc1 | 21.9 | 100 | 
21 | O=C1C(c2ccccc2)=C(c2ccccc2)C(=O)N1c1ccc(F)cc1 | 10.3 | 100 | 
22 | O=C1C(c2ccccc2)=C(c2ccccc2)C(=O)N1c1ccc(N2CCCCC2)cc1 | 5.8 | 87.4 | 
